Assay results published in patent US9663529B2, “Tricyclic pyrido-carboxamide derivatives as rock inhibitors” (BRISTOL-MYERS SQUIBB COMPANY, priority 2013, dated 2017).

Target: ROCK2 (Homo sapiens (Human), UniProt O75116)
Assay: ROCK assay (Caliper LABCHIP peptide phosphorylation, 5 μM ATP)
Assay type: biochemical
Conditions: 1.5 μM peptide substrate

ROCK2, sequence (O75116 whole entry, species assumed): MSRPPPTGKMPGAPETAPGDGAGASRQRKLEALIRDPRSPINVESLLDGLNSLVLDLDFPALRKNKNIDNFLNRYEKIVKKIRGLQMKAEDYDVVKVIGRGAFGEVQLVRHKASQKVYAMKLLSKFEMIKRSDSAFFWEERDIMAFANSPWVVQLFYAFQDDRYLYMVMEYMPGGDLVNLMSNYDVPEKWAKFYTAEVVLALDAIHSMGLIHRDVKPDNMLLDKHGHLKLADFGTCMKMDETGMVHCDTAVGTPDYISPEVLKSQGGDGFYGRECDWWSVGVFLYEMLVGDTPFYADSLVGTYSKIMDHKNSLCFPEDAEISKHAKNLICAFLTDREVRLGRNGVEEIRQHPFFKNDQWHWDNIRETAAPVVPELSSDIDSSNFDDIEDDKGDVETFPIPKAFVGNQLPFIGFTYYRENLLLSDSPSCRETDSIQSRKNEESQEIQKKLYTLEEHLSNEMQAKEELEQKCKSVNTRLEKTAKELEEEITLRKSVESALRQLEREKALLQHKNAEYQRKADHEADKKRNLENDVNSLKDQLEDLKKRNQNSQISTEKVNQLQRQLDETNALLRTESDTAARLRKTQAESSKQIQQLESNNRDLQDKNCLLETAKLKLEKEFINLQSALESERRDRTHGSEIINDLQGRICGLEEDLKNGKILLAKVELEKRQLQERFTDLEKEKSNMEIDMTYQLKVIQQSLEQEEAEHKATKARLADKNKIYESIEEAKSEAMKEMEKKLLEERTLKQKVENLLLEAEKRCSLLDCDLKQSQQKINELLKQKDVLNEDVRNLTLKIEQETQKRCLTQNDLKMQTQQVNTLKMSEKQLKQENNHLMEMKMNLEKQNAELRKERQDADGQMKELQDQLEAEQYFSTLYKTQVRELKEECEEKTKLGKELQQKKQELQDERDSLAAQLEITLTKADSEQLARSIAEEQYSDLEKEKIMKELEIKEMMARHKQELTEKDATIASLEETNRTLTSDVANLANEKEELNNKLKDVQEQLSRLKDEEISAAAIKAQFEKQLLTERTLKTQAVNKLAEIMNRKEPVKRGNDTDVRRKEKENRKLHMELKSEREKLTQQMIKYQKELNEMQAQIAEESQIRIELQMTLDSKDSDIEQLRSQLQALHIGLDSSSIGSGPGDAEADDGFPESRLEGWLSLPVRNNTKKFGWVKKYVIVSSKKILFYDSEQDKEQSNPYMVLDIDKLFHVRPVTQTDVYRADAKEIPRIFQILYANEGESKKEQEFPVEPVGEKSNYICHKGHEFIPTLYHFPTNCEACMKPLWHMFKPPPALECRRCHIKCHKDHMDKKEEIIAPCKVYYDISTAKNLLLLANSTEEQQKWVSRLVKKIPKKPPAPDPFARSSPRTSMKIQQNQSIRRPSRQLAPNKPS

| IC50 [nM] | Compound |
| --- | --- |
| 82.2 | O=C(CCOc1ccccc1)Nc1ccc2c(c1)OCc1cnccc1-2 [Example I-2, N-(5H-chromeno[3,4-c]pyridin-8-yl)-3-phenoxypropanamide] |
| 284 | N[C@@H](CCc1ccccc1)C(=O)Nc1ccc2c(c1)OCc1cnccc1-2 [Example I-3, (S)-2-amino-N-(5H-chromeno[3,4-c]pyridin-8-yl)-4-phenylbutanamide] |
| 128 | N[C@H](CCc1ccccc1)C(=O)Nc1ccc2c(c1)OCc1cnccc1-2 [Example I-4, (R)-2-amino-N-(5H-chromeno[3,4-c]pyridin-8-yl)-4-phenylbutanamide] |
| 6.27 | O=C(Cc1ccc(F)cc1Cl)Nc1ccc2c(c1)OCc1cnccc1-2 [Example I-10, 2-(2-chloro-4-fluorophenyl)-N-(5H-chromeno[3,4-c]pyridin-8-yl)acetamide] |
| 74.5 | Cc1cccc(CC(=O)Nc2ccc3c(c2)OCc2cnccc2-3)c1 [Example I-12, N-(5H-chromeno[3,4-c]pyridin-8-yl)-2-m-tolylacetamide] |
| 16.7 | Cc1ccccc1CC(=O)Nc1ccc2c(c1)OCc1cnccc1-2 [Example I-15, N-(5H-chromeno[3,4-c]pyridin-8-yl)-2-o-tolylacetamide] |
| 1760 | CS(=O)(=O)c1ccc(CC(=O)Nc2ccc3c(c2)OCc2cnccc2-3)cc1 [Example I-20, N-(5H-chromeno[3,4-c]pyridin-8-yl)-2-(4-(methylsulfonyl)phenyl)acetamide] |
| 159 | O=C(Cc1cccc(C(F)(F)F)c1)Nc1ccc2c(c1)OCc1cnccc1-2 [Example I-22, N-(5H-chromeno[3,4-c]pyridin-8-yl)-2-(3-(trifluoromethyl)phenyl)acetamide] |
| 368 | O=C(Cc1cc(F)cc(C(F)(F)F)c1)Nc1ccc2c(c1)OCc1cnccc1-2 [Example I-23, N-(5H-chromeno[3,4-c]pyridin-8-yl)-2-(3-fluoro-5-(trifluoromethyl)phenyl)acetamide] |
| 60.8 | N#Cc1ccc(-c2cnn(Cc3cccc(C(=O)Nc4ccc5c(c4)OCc4cnccc4-5)c3)c2)cc1 [Example I-27, N-(5H-chromeno[3,4-c]pyridin-8-yl)-3-((4-(4-cyanophenyl)-1H-pyrazol-1-yl)methyl)benzamide] |
| 3440 | O=C(Nc1ccc2c(c1)OCc1cnccc1-2)c1ccc(F)cc1 [Example I-28, N-(5H-chromeno[3,4-c]pyridin-8-yl)-4-fluorobenzamide] |
| 2940 | O=C(Nc1ccc2c(c1)OCc1cnccc1-2)c1cnccn1 [Example I-30, N-(5H-chromeno[3,4-c]pyridin-8-yl) pyrazine-2-carboxamide] |
| 682 | O=C(CCCc1ccccc1)Nc1ccc2c(c1)OCc1cnccc1-2 [Example I-32, N-(5H-chromeno[3,4-c]pyridin-8-yl)-4-phenylbutanamide] |
| 204 | CC(C)(C(=O)Nc1ccc2c(c1)OCc1cnccc1-2)c1ccccc1 [Example I-36, N-(5H-chromeno [3,4-c]pyridin-8-yl)-2-methyl-2-phenylpropanamide] |
| 847 | COC(=O)c1cccc(C(=O)Nc2ccc3c(c2)OCc2cnccc2-3)c1 [Example I-38, methyl 3-(5H-chromeno[3,4-c]pyridin-8-ylcarbamoyl)benzoate] |
| 500 | NS(=O)(=O)c1ccc(C(=O)Nc2ccc3c(c2)OCc2cnccc2-3)cc1 [Example I-40, N-(5H-chromeno[3,4-c]pyridin-8-yl)-4-sulfamoylbenzamide] |
| 2760 | O=C(Nc1ccc2c(c1)OCc1cnccc1-2)c1csnn1 [Example I-41, N-(5H-chromeno[3,4-c]pyridin-8-yl)-1,2,3-thiadiazole-4-carboxamide] |
| 1450 | O=C(Nc1ccc2c(c1)OCc1cnccc1-2)c1cscn1 [Example I-44, N-(5H-chromeno[3,4-c]pyridin-8-yl) thiazole-4-carboxamide] |
| 1980 | O=C(Nc1ccc2c(c1)OCc1cnccc1-2)c1cncnc1 [Example I-45, N-(5H-chromeno[3,4-c]pyridin-8-yl) pyrimidine-5-carboxamide] |
| 51.2 | O=C(Nc1ccc2c(c1)OCc1cnccc1-2)C(O)c1ccccc1 (stereo not shown) [Example I-46, N-(5H-chromeno[3,4-c]pyridin-8-yl)-2-hydroxy-2-phenylacetamide] |
| 4810 | O=C(Nc1ccc2c(c1)OCc1cnccc1-2)c1ccccc1 [Example I-50, N-(5H-chromeno[3,4-c]pyridin-8-yl)benzamide] |
| 1150 | O=C(Nc1ccc2c(c1)OCc1cnccc1-2)c1ccccc1Cl [Example I-51, 2-chloro-N-(5H-chromeno[3,4-c]pyridin-8-yl)benzamide] |
| 3560 | O=C(Nc1ccc2c(c1)OCc1cnccc1-2)c1cccc(F)c1 [Example I-52, N-(5H-chromeno[3,4-c]pyridin-8-yl)-3-fluorobenzamide] |
| 4500 | O=C(Nc1ccc2c(c1)OCc1cnccc1-2)c1cccc(Cl)c1 [Example I-53, 3-chloro-N-(5H-chromeno[3,4-c]pyridin-8-yl)benzamide] |
| 2560 | N#Cc1ccc(C(=O)Nc2ccc3c(c2)OCc2cnccc2-3)cc1 [Example I-54, N-(5H-chromeno[3,4-c]pyridin-8-yl)-4-cyanobenzamide] |
| 3250 | COc1ccc(C(=O)Nc2ccc3c(c2)OCc2cnccc2-3)cc1 [Example I-55, N-(5H-chromeno[3,4-c]pyridin-8-yl)-4-methoxybenzamide] |

The remaining lines, values behind:

| Compound | IC50 [nM] |
| --- | --- |
| CC(C(=O)Nc1ccc2c(c1)OCc1cnccc1-2)c1ccccc1Cl (stereo not shown) [Example I-5, 2-(2-chlorophenyl)-N-(5H-chromeno [3,4-c]pyridin-8-yl) propanamide] | 33.5 |
| O=C(Cc1cccc(Cl)c1)Nc1ccc2c(c1)OCc1cnccc1-2 [Example I-11, 2-(3-chlorophenyl)-N-(5H-chromeno [3,4-c]pyridin-8-yl) acetamide] | 24.8 |
| O=C(Cc1ccc(Cl)cc1)Nc1ccc2c(c1)OCc1cnccc1-2 [Example I-13, 2-(4-chlorophenyl)-N-(5H-chromeno [3,4-c]pyridin-8-yl) acetamide] | 134 |
| O=C(Cc1ccc(Cl)cc1Cl)Nc1ccc2c(c1)OCc1cnccc1-2 [Example I-14, N-(5H-chromeno [3,4-c]pyridin-8-yl)-2-(2,4-dichlorophenyl) acetamide] | 54.4 |
| Cc1cc(C)cc(CC(=O)Nc2ccc3c(c2)OCc2cnccc2-3)c1 [Example I-16, N-(5H-chromeno[3,4-c]pyridin-8-yl)-2-(3,5-dimethylphenyl) acetamide] | 110 |
| O=C(Cc1cc(F)cc(F)c1)Nc1ccc2c(c1)OCc1cnccc1-2 [Example I-17, N-(5H-chromeno[3,4-c]pyridin-8-yl)-2-(3,5-difluorophenyl) acetamide] | 37.8 |
| COc1cc(CC(=O)Nc2ccc3c(c2)OCc2cnccc2-3)cc(OC)c1 [Example I-18, N-(5H-chromeno[3,4-c]pyridin-8-yl)-2-(3,5-dimethoxyphenyl) acetamide] | 393 |
| COc1ccc(CC(=O)Nc2ccc3c(c2)OCc2cnccc2-3)cc1OC [Example I-19, N-(5H-chromeno[3,4-c]pyridin-8-yl)-2-(3,4-dimethoxyphenyl) acetamide] | 2500 |
| O=C(Cc1c(Cl)cccc1Cl)Nc1ccc2c(c1)OCc1cnccc1-2 [Example I-21, N-(5H-chromeno[3,4-c]pyridin-8-yl)-2-(2,6-dichlorophenyl) acetamide] | 161 |
| Cc1cc(F)ccc1CC(=O)Nc1ccc2c(c1)OCc1cnccc1-2 [Example I-24, N-(5H-chromeno[3,4-c]pyridin-8-yl)-2-(4-fluoro-2-methylphenyl) acetamide] | 11.1 |
| CSc1ccc(CC(=O)Nc2ccc3c(c2)OCc2cnccc2-3)cc1 [Example I-25, N-(5H-chromeno[3,4-c]pyridin-8-yl)-2-(4-(methylthio)phenyl) acetamide] | 295 |
| O=C(Cc1ccc(F)cc1)Nc1ccc2c(c1)OCc1cnccc1-2 [Example I-26, N-(5H-chromeno[3,4-c]pyridin-8-yl)-2-(4-fluorophenyl) acetamide] | 38.7 |
| CS(=O)(=O)c1ccc(C(=O)Nc2ccc3c(c2)OCc2cnccc2-3)cc1 [Example I-29, N-(5H-chromeno[3,4-c]pyridin-8-yl)-4-(methylsulfonyl) benzamide] | 2050 |
| COc1ccc(CC(=O)Nc2ccc3c(c2)OCc2cnccc2-3)cc1 [Example I-31, N-(5H-chromeno[3,4-c]pyridin-8-yl)-2-(4-methoxyphenyl) acetamide] | 497 |
| O=C(Cc1ccccn1)Nc1ccc2c(c1)OCc1cnccc1-2 [Example I-33, N-(5H-chromeno[3,4-c]pyridin-8-yl)-2-(pyridin-2-yl) acetamide] | 367 |
| O=C(Cc1ccncc1)Nc1ccc2c(c1)OCc1cnccc1-2 [Example I-34, N-(5H-chromeno[3,4-c]pyridin-8-yl)-2-(pyridin-4-yl) acetamide] | 207 |
| CC(=O)Nc1cccc(C(=O)Nc2ccc3c(c2)OCc2cnccc2-3)c1 [Example I-35, 3-acetamido-N-(5H-chromeno[3,4-c]pyridin-8-yl) benzamide] | 434 |
| O=C(CCc1ccc(Cl)cc1)Nc1ccc2c(c1)OCc1cnccc1-2 [Example I-37, 3-(4-chlorophenyl)-N-(5H-chromeno [3,4-c]pyridin-8-yl) propanamide] | 323 |
| O=C(Nc1ccc2c(c1)OCc1cnccc1-2)c1csc(-c2cccnc2)n1 [Example I-39, N-(5H-chromeno[3,4-c]pyridin-8-yl)-2-(pyridin-3-yl) thiazole-4-carboxamide] | 644 |
| O=C(Cc1cccnc1)Nc1ccc2c(c1)OCc1cnccc1-2 [Example I-42, N-(5H-chromeno[3,4-c]pyridin-8-yl)-2-(pyridin-3-yl) acetamide] | 287 |
| CS(=O)(=O)c1cccc(C(=O)Nc2ccc3c(c2)OCc2cnccc2-3)c1 [Example I-43, N-(5H-chromeno[3,4-c]pyridin-8-yl)-3-(methylsulfonyl) benzamide] | 2190 |
| O=C(CCn1ccnc1)Nc1ccc2c(c1)OCc1cnccc1-2 [Example I-48, N-(5H-chromeno[3,4-c]pyridin-8-yl)-3-(1H-imidazol-1-yl) propanamide] | 992 |
| O=C(Cc1cnccn1)Nc1ccc2c(c1)OCc1cnccc1-2 [Example I-49, N-(5H-chromeno[3,4-c]pyridin-8-yl)-2-(pyrazin-2-yl) acetamide] | 1250 |
